Assay results reported in patent publication US9387206B2, “Therapeutic approaches for treating Alzheimer's disease” (PHARNEXT, priority 2009, dated 2016).

B1: brain-derived neurotrophic factor (protein, UniProt P23560 19-247, looked up)
Neurotrophic factor BDNF …: APMKEANIRGQGGLAYPGVRTHGTLESVNGPKAGSRGLTSLADTFEHVIEELLDEDQKVRPNEENNKDADLYTSRVMLSSQVPLEPPLLFLLEEYKNYLDAANMSMRVRRHSDPARRGELSVCDSISEWVTAADKKTAVDMSGGTVTVLEKVPVSKGQLKQYFYETKCNPMGYTKEGCRGIDKRHWNSQCRTTQSYVRALTMDSKKRIGWRFIRIDTSCVCTLTIKRGR
notes: positive control for neuroprotection at 50 ng/ml

Experiments:
Assay type in all cases: cell-based
[1] = system: rat primary cortical neurons; test: LDH release, human Aβ1-42 toxicity on rat primary cortical cells
Experimental: Primary rat cortical neurons are cultured as described previously.
Briefly, Aβ1-42 peptide was reconstituted in defined culture medium at 40 μM (mother solution) and was slowly shacked at +37° C. for 3 days in the dark for aggregation. The control medium was prepared in the same conditions.
After 10 days of neuron culture, the drug was solved in culture medium (+0.1% DMSO) and then pre-incubated with neurons for 1 hour before the Aβ1-42 application (in a final volume per culture well of 100 μl). […] Cortical neurons were intoxicated for 24 hours. Three separate cultures were performed per condition, 6 wells per condition.
Estradiol-β at 100 and 150 nM were used as a reference test compound and BDNF at 50 ng/ml was used as a positive control. Three separate cultures were performed per condition, […].
Estradiol-β and BDNF were solved in culture medium and pre-incubated for 1 h before the aggregated amyloid-β1-42 application.
Lactate Dehydrogenase (LDH) Activity Assay
This colorimetric assay for the quantification of cell toxicity is based on the measurement of lactate dehydrogenase (LDH) activity released from the cytosol of dying cells into the supernatant.
All values are expressed as mean±s.e.mean of the 3 cultures (n=6 per condition). Statistical analyses were done on the different conditions (ANOVA followed by the Dunnett's test when it was allowed, Statview software version 5.0).

[2] = system: human brain microvascular endothelial cells (HBMEC); test: Total length of capillary network in human Aβ1-42 intoxicated HBMEC cultures; settings: for Effect on Aβ1-42 intoxication, total length of capillary network, drug alone / Prevention of Aβ1-42 intoxication, capillary network, drug alone: Aβ1-42 2.5 μM; for Prevention of Aβ1-42 intoxication, capillary network, drug alone: dose-response experiments, 18 h
Experimental: Human brain microvascular endothelial cell cultures were used to study the protection afforded by candidate compounds on Aβ1-42 toxicity.
Human brain microvascular endothelial cerebral cells (HBMEC, ScienCell Ref: 1000, frozen at passage 10) were rapidly thawed in a water bath at +37° C. […] On matrigel support, endothelial cerebral cells spontaneously started the process of capillary network morphogenesis (47).
Three separate cultures were performed per condition, 6 wells per condition.
The control medium was prepared in the same conditions.
The Aβ1-42 peptide was added 2 hours after HBMEC seeding on matrigel for 18 hours incubation.
Capillary Network Quantification
Per well, 2 pictures with 4× lens were taken using InCell Analyzer™ 1000 (GE Healthcare) in light transmission. All images were taken in the same conditions. Analysis of the angiogenesis networks was done using Developer software (GE Healthcare). The total length of capillary network was assessed.
All values are expressed as mean±s.e.mean of the 3 cultures (n=6 per condition). Statistical analyses were done on the different conditions performing an ANOVA followed by the Dunnett's test when it was allowed (Statview software version 5.0). The values (as %) inserted on the graphs show the amyloid toxicity evolution. Indeed, the amyloid toxicity was taken as the 100% and the test compound effect was calculated as a % of this amyloid toxicity.

[3] = system: rat endothelial cerebral cells; test: LDH release from rat endothelial cerebral cells, beta-amyloid (Aβ25-35) toxicity; settings: for Prevention of Aβ25-35 intoxication, LDH release: Aβ25-35 30 μM, 3 days, drug added 1 hour before; for Spontaneous cell death in the culture medium: LDH release, rat endothelial cerebral cells
Experimental: Primo culture of rat endothelial cerebral cells (Vect-Horus SAS, Marseille) is cultivated on passage 0. At confluence, endothelial cells are dissociated with trypsin EDTA (Pan Biotech Ref: P10-023100). Cells are seeded at a density of 25,000 cells/well in 96-well plates (wells are coated with 30 μl of type I rat collagen at 1.5 mg/ml, Vect-Horus SAS, Marseille) and are cultured in MCBD 131 medium (M-131-500, Invitrogen) supplemented with 1% of microvascular growth supplement (MVGS, S-005-25, Invitrogen). Cells are cultured at 37° C. in a humidified air (95%)/CO2(5%) atmosphere. Half of the medium is changed every other day with fresh medium.
After 4 days, drugs are added to the cell culture medium, at different concentrations, solved in DMSO 0.1% or water.
Cells are then intoxicated with 30 μM of β-amyloid (25-35; Sigma) together with drugs in the same culture medium. Cells are then intoxicated for 3 days.
For each culture, after 3 days of intoxication, the supernatant is collected and analyzed with the Cytotoxicity Detection Kit (LDH, Roche Applied Sciences). This colorimetric assay for the quantification of cell death is based on the measurement of lactate dehydrogenase (LDH) activity released from the cytosol of damaged cells into the supernatant. The optic density (DO) is assessed by spectrophotometer at 492 nm wavelength by a multiscan apparatus (Thermo, Ref Ascent).
Results presented in FIG. 3 are extracted from two independent cultures, 6 wells per condition. All values are expressed as mean±s.e.m. A bilateral Student's t test analysis is performed on raw data. Results are expressed in percentage of cell viability, compared to the control (vehicle).
Drugs are incubated with rat primary cerebral endothelial cells for one hour before Aβ25-35 30 μM intoxication that lasts 3 days.
Three days after this incubation, LDH release in the culture medium is quantified, reflecting the level of cell death.

[4] = system: rat primary cortical neurons; test: LDH release in Aβ25-35 intoxicated rat primary cortical neuron culture; settings: Aβ25-35 20 μM, 2 days; drug added 1 hour before
Experimental: Primary rat cortical neurons are cultured as described by Singer et al., 1999. Briefly pregnant female rats of 15 days gestation are killed by cervical dislocation (Rats Wistar; Janvier) and the foetuses removed from the uterus. The cortexes are removed and placed in ice-cold medium of Leibovitz (L15; Invitrogen) containing 1% of Penicillin-Streptomycin (PS; Invitrogen) and 1% of bovine serum albumin (BSA; Sigma). Cortexes are dissociated by trypsinisation for 20 min at 37° C. (Trypsin EDTA 1×; Invitrogen) diluted in PBS without calcium and magnesium. The reaction is stopped by the addition of Dulbecco's modified Eagle's medium (DMEM; Invitrogen) containing DNAase I grade II (0.1 mg/ml; Roche Diagnostics) and 10% of foetal calf serum (FCS; Invitrogen). Cells are then mechanically dissociated by 3 passages through a 10 ml pipette. Cells are then centrifuged at 180×g for 10 min at 10° C. […] Viable cells are counted in a Neubauer cytometer using the trypan blue exclusion test. Cells are seeded at a density of 30,00-cells/well in 96-well plates (wells are pre-coated with poly-L-lysine (10 μg/ml; […] After 6 days of culture, cells are incubated with drugs (5 concentrations). After 1 hour, cells are intoxicated by 20 μM of β-amyloid (25-35; Sigma) in defined medium without BDNF but together with drugs. Cortical neurons are intoxicated for 2 days. After 2 days of culture, the supernatant is collected and analyzed with the Cytotoxicity Detection Kit (LDH, Roche Applied Sciences). This colorimetric assay for the quantification of cell death is based on the measurement of lactate dehydrogenase (LDH) activity released from the cytosol of damaged cells into the supernatant. The optic density (DO) is assessed by spectrophotometer at 492 nm wavelength by a multiscan apparatus (Thermo, Ref Ascent). […] Two days after this incubation, LDH release in the culture medium is quantified, reflecting the level of cell death.

[5] = drug pretreatment, concentration not given
[6] = alone at the concentrations used in the combination (FIGS. 8-13)

Molecule	LDH release, prevention of Aβ1-42 intoxication [1, 5]	Effect on Aβ1-42 intoxication, total length of capillary network, drug alone [2, 6]	Prevention of Aβ1-42 intoxication, capillary network, drug alone [2]	Prevention of Aβ25-35 intoxication, LDH release [3]	other results
NCC(CC(=O)O)c1ccc(Cl)cc1 (racemic) [Baclofen]	−86%	no significant effect	significantly prevented	–	–
NCCCCCC(=O)O [Aminocaproic acid, Aminocaproic Acid]	–	no significant effect	–	–	–
NCC(CC(=O)O)c1ccc(Cl)cc1 (stereo not drawn) [Baclofen (−), Baclofen]	–	–	–	significantly prevented	–
CCN(CC)C(=O)N1CCN(C)CC1 [Carbamazine]	–	–	–	–	Effect on Aβ1-42 intoxication, LDH release, drug alone ([1]; 0.32 nM alone, Aβ1-42 2.5 μM): no significant effect; LDH release, prevention of Aβ1-42 intoxication ([1]; 40 nM, Aβ1-42 10 μM): −68%; Protective effect against toxicity of Aβ peptide 1-42, drug alone ([1]; 40 nM, primary cortical neuron cells): strong protective effect
CC1(C)[C@@H](OC(=O)CCC(=O)O)CC[C@]2(C)[C@H]3C(=O)C=C4[C@@H]5C[C@@](C)(C(=O)O)CC[C@]5(C)CC[C@@]4(C)[C@]3(C)CC[C@@H]12 [Carbenoxolone]	−39%	–	–	–	–
C(=C\c1ccccc1)/CN1CCN(C(c2ccccc2)c2ccccc2)CC1 [Cinnarizine]	−50%	–	–	–	–
CCOC(=O)c1cncn1[C@H](C)c1ccccc1 [Etomidate]	−50%	–	–	–	–
Cc1oncc1C(=O)Nc1ccc(C(F)(F)F)cc1 [Leflunomide]	–	–	–	significantly prevented	Spontaneous cell death in the culture medium [3]: decrease spontaneous cell death; Prevention of Aβ25-35 intoxication, LDH release [4]: significantly prevented
C[C@@H]1CC(=O)NN=C1c1ccc(NN=C(C#N)C#N)cc1 [Levosimendan]	−47%	no significant effect	significantly prevented	–	Protective effect against toxicity of Aβ peptide 1-42, drug alone ([2]; 8 nM, HBMEC): strong protective effect
Cc1noc(NS(=O)(=O)c2ccc(N)cc2)c1C [Sulfisoxazole]	−42%	no significant effect	significantly prevented	significantly prevented	Prevention of Aβ25-35 intoxication, LDH release [4]: significantly prevented; Effect on Aβ1-42 intoxication, total length of capillary network, drug alone ([2]; 1.36 nM alone): no significant effect
CN(C/C=C/C#CC(C)(C)C)Cc1cccc2ccccc12 [Terbinafine]	–	no significant effect	significantly prevented	significantly prevented	Spontaneous cell death in the culture medium [3]: decrease spontaneous cell death
B1	–	–	–	–	LDH release, protection from amyloid injury ([1]; BDNF 50 ng/ml, 1 hr pre-treatment, Aβ1-42): −62%
